Measurements taken from patent US12077503B2, “Substituted cyclic amides and their use as herbicides” (FMC CORPORATION, priority 2015, dated 2024).
Read-outs that look alike come from different tables or passages of the source.

Legend:
Type in all cases: in vivo
[1] = system: ryegrass, Italian (Italian ryegrass, Lolium multiflorum); experiment: Test A postemergence; conditions: Lolium multiflorum, post-emergence, 240 h; for pest or weed control at 125 g/ha: 125 g ai/ha
In short: (§1)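 In a loam soil and sand blend, planted seeds got a preemergence directed soil spray, and young plants at the one- to two-leaf stage, 2–10 cm high, got a postemergence application; ~10 d greenhouse hold; injury rated visually, 0 = none, 100 = complete control.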

[2] = system: giant foxtail (Setaria faberii); experiment: Test A postemergence; conditions: Setaria faberi, post-emergence, 240 h; for pest or weed control at 125 g/ha: 125 g ai/ha
In short: as §1

[3] = system: pigweed (Amaranthus retroflexus); experiment: Test A postemergence; conditions: Amaranthus retroflexus, post-emergence, 240 h; for pest or weed control at 125 g/ha: 125 g ai/ha
In short: as §1

Kochia (Kochia scoparia) [4] = experiment: Test A postemergence; conditions: Bassia scoparia, post-emergence, 240 h; for pest or weed control at 125 g/ha: 125 g ai/ha
In short: as §1

rice (Oryra sativa) = experiment: Test B flooded paddy test; conditions: Oryza sativa, Flood, 250 g ai/ha
In short: (§2)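 2-leaf plants; pots flooded 3 cm over soil; cpd added to paddy water; depth held; greenhouse 13–15 d; visual rating vs controls, 0 = no effect, 100 = complete control.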

[5] = system: sedge, umbrella (small-flower umbrella sedge, Cyperus difformis); experiment: Test B flooded paddy test; conditions: Cyperus difformis, Flood, 250 g ai/ha
In short: as §2

[6] = system: ducksalad (Heteranthera limosa); experiment: Test B flooded paddy test; conditions: Heteranthera limosa, Flood, 250 g ai/ha
In short: as §2

[7] = system: barnyardgrass (Echinochloa crus-galli); experiment: Test B flooded paddy test; conditions: Echinochloa crus-galli, Flood, 250 g ai/ha
In short: as §2

[8] = system: ryegrass, Italian (Italian ryegrass, Lolium multiflorum); experiment: Test A preemergence; conditions: Lolium multiflorum, pre-emergence, 240 h, read-out: Plant response rating, Ryegrass, Italian; for pest or weed control at 500 g/ha: 500 g ai/ha; for pest or weed control at 125 g/ha: 125 g ai/ha
In short: as §1

[9] = system: giant foxtail (Setaria faberii); experiment: Test A preemergence; conditions: Setaria faberi, pre-emergence, 240 h, read-out: Plant response rating, Foxtail, Giant; for pest or weed control at 500 g/ha: 500 g ai/ha; for pest or weed control at 125 g/ha: 125 g ai/ha
In short: as §1

[10] = system: ragweed (common ragweed, Ambrosia elatior); experiment: Test A preemergence; conditions: Ambrosia artemisiifolia, pre-emergence, 240 h, read-out: Plant response rating, Ragweed; for pest or weed control at 500 g/ha: 500 g ai/ha; for pest or weed control at 125 g/ha: 125 g ai/ha
In short: as §1

[11] = system: pigweed (Amaranthus retroflexus); experiment: Test A preemergence; conditions: Amaranthus retroflexus, pre-emergence, 240 h, read-out: Plant response rating, Pigweed; for pest or weed control at 500 g/ha: 500 g ai/ha; for pest or weed control at 125 g/ha: 125 g ai/ha
[12] = system: barnyardgrass (Echinochloa crus-galli); experiment: Test A preemergence; conditions: Echinochloa crus-galli, pre-emergence, 240 h, read-out: Plant response rating, Barnyardgrass; for pest or weed control at 500 g/ha: 500 g ai/ha; for pest or weed control at 125 g/ha: 125 g ai/ha
In short: as §1

Kochia (Kochia scoparia) [13] = experiment: Test A preemergence; conditions: Bassia scoparia, pre-emergence, 240 h, read-out: Plant response rating, Kochia; for pest or weed control at 500 g/ha: 500 g ai/ha; for pest or weed control at 125 g/ha: 125 g ai/ha
In short: as §1

[14] = preemergence, 0 to 100 scale (0 no effect, 100 complete control)
[15] = Preemergence, 0 to 100 scale (0 no effect, 100 complete control)
[16] = postemergence, visual injury after approximately 10 d, 0 to 100 scale (0 no effect, 100 complete control), read-out: Plant response rating, Ryegrass, Italian
[17] = postemergence, visual injury after approximately 10 d, 0 to 100 scale (0 no effect, 100 complete control), read-out: Plant response rating, Foxtail, Giant
[18] = postemergence, visual injury after approximately 10 d, 0 to 100 scale (0 no effect, 100 complete control), read-out: Plant response rating, Pigweed
[19] = postemergence, visual injury after approximately 10 d, 0 to 100 scale (0 no effect, 100 complete control), read-out: Plant response rating, Kochia
[20] = scale of 0 to 100 where 0 is no effect and 100 is complete control, read-out: Rice plant response rating
[21] = scale of 0 to 100 where 0 is no effect and 100 is complete control, read-out: Sedge, Umbrella plant response rating
[22] = scale of 0 to 100 where 0 is no effect and 100 is complete control, read-out: Ducksalad plant response rating
[23] = scale of 0 to 100 where 0 is no effect and 100 is complete control, read-out: Barnyardgrass plant response rating
[24] = preemergence, visual rating after approx. 10 d, 0 to 100 scale where 0 is no effect and 100 is complete control
[25] = preemergence, 0 to 100 scale, 0 = no effect, 100 = complete control

Compound `O=C1NC[C@H](c2cc(C(F)(F)F)ccn2)[C@H]1C(=O)Nc1cccc(F)c1F` (racemic) [Compound 1376] has a pest or weed control at 125 g/ha ([1]; Postemergence, visual rating about 10 d after treatment, read-out: Ryegrass, Italian plant response rating (0 to 100 scale)) of 0%, a pest or weed control at 500 g/ha ([1]; Postemergence, 500 g ai/ha, visual injury, 0 to 100 scale (0 no effect, 100 complete control), approx. 10 d, read-out: Plant response rating, Ryegrass, Italian) of 30% and a pest or weed control at 125 g/ha ([2]; Postemergence, visual rating about 10 d after treatment, read-out: Foxtail, Giant plant response rating (0 to 100 scale)) of 80%. It also gave a pest or weed control at 500 g/ha ([2]; Postemergence, 500 g ai/ha, visual injury, 0 to 100 scale (0 no effect, 100 complete control), approx. 10 d, read-out: Plant response rating, Foxtail, Giant) of 80%, a pest or weed control at 125 g/ha ([3]; Postemergence, visual rating about 10 d after treatment, read-out: Pigweed plant response rating (0 to 100 scale)) of 0% and a pest or weed control at 500 g/ha ([3]; Postemergence, 500 g ai/ha, visual injury, 0 to 100 scale (0 no effect, 100 complete control), approx. 10 d, read-out: Plant response rating, Pigweed) of 20%. The pest or weed control at 125 g/ha (Kochia (Kochia scoparia) [4]; Postemergence, visual rating about 10 d after treatment, read-out: Kochia plant response rating (0 to 100 scale)) was 0%, the pest or weed control at 500 g/ha (Kochia (Kochia scoparia) [4]; Postemergence, 500 g ai/ha, visual injury, 0 to 100 scale (0 no effect, 100 complete control), approx. 10 d, read-out: Plant response rating, Kochia) was 20% and the pest or weed control at 250 g/ha (rice (Oryra sativa); 360 h, visually evaluated after 13 to 15 d, read-out: Plant response rating, Rice (0 to 100 scale where 0 is no effect and 100 is complete control)) was 0%. It also gave a pest or weed control at 250 g/ha ([5]; 360 h, visually evaluated after 13 to 15 d, read-out: Plant response rating, Sedge, Umbrella (0 to 100 scale where 0 is no effect and 100 is complete control)) of 0%, a pest or weed control at 250 g/ha ([6]; 360 h, visually evaluated after 13 to 15 d, read-out: Plant response rating, Ducksalad (0 to 100 scale where 0 is no effect and 100 is complete control)) of 70% and a pest or weed control at 250 g/ha ([7]; 360 h, visually evaluated after 13 to 15 d, read-out: Plant response rating, Barnyardgrass (0 to 100 scale where 0 is no effect and 100 is complete control)) of 40%. For the same compound, the pest or weed control at 500 g/ha [8, 14] was 70%, the pest or weed control at 125 g/ha [8, 15] was 20% and the pest or weed control at 500 g/ha [9, 14] was 100%. The pest or weed control at 125 g/ha [9, 15] was 90%, the pest or weed control at 500 g/ha [10, 14] was 0% and the pest or weed control at 125 g/ha [10, 15] was 0%. For the same compound, the pest or weed control at 500 g/ha [11, 14] was 0%, the pest or weed control at 125 g/ha [11, 15] was 0% and the pest or weed control at 500 g/ha [12, 14] was 100%. It also gave a pest or weed control at 125 g/ha [12, 15] of 90%, a pest or weed control at 500 g/ha (Kochia (Kochia scoparia) [13]; [14]) of 0% and a pest or weed control at 125 g/ha (Kochia (Kochia scoparia) [13]; [15]) of 0%.
In the case of `COc1ccc([C@H]2CNC(=O)[C@@H]2C(=O)Nc2ccccc2S(C)(=O)=O)cc1F` [Compound 721], the pest or weed control at 125 g/ha [1, 16] is reported as 0%, the pest or weed control at 125 g/ha [2, 17] is reported as 0% and the pest or weed control at 125 g/ha [3, 18] is reported as 0%. It also gave a pest or weed control at 125 g/ha (Kochia (Kochia scoparia) [4]; [19]) of 0%, a pest or weed control at 250 g/ha (rice (Oryra sativa); [20]) of 0% and a pest or weed control at 250 g/ha [5, 21] of 0%. For the same compound, the pest or weed control at 250 g/ha [6, 22] was 100%, the pest or weed control at 250 g/ha [7, 23] was 0% and the pest or weed control at 125 g/ha [8, 24] was 0%. The pest or weed control at 500 g/ha [8, 25] was 20%, the pest or weed control at 125 g/ha [9, 24] was 30% and the pest or weed control at 500 g/ha [9, 25] was 90%. It also gave a pest or weed control at 125 g/ha [10, 24] of 0%, a pest or weed control at 500 g/ha [10, 25] of 50% and a pest or weed control at 125 g/ha [11, 24] of 0%. The pest or weed control at 500 g/ha [11, 25] was 0%, the pest or weed control at 125 g/ha [12, 24] was 30% and the pest or weed control at 500 g/ha [12, 25] was 80%. For the same compound, the pest or weed control at 125 g/ha (Kochia (Kochia scoparia) [13]; [24]) was 0% and the pest or weed control at 500 g/ha (Kochia (Kochia scoparia) [13]; [25]) was 0%.
`O=C1NC[C@H](c2ccc(C3CC3)cc2)[C@H]1C(=O)Nc1ccccc1F` [Compound 727] gave a pest or weed control at 125 g/ha [1, 16] of 0%, a pest or weed control at 125 g/ha [2, 17] of 40% and a pest or weed control at 125 g/ha [3, 18] of 0%. For the same compound, the pest or weed control at 125 g/ha (Kochia (Kochia scoparia) [4]; [19]) was 0%, the pest or weed control at 250 g/ha (rice (Oryra sativa); [20]) was 25% and the pest or weed control at 250 g/ha [5, 21] was 0%. For the same compound, the pest or weed control at 250 g/ha [6, 22] was 75%, the pest or weed control at 250 g/ha [7, 23] was 0% and the pest or weed control at 125 g/ha [8, 24] was 0%. It also gave a pest or weed control at 500 g/ha [8, 25] of 0%, a pest or weed control at 125 g/ha [9, 24] of 80% and a pest or weed control at 500 g/ha [9, 25] of 90%. For the same compound, the pest or weed control at 125 g/ha [10, 24] was 0%, the pest or weed control at 500 g/ha [10, 25] was 0% and the pest or weed control at 125 g/ha [11, 24] was 0%. The pest or weed control at 500 g/ha [11, 25] was 0%, the pest or weed control at 125 g/ha [12, 24] was 70% and the pest or weed control at 500 g/ha [12, 25] was 90%. The pest or weed control at 125 g/ha (Kochia (Kochia scoparia) [13]; [24]) was 0% and the pest or weed control at 500 g/ha (Kochia (Kochia scoparia) [13]; [25]) was 0%.
